Assay results as given in ChEMBL document CHEMBL1148502, “Carbonic anhydrase inhibitors: inhibition of the cytosolic human isozyme VII with anions” (Bioorg Med Chem Lett, 2006).
Several values for one entry are separate records, joined by “and”; a condition that tells them apart may be missing. Equal values may be shown once.

Experiments:
Carbonic anhydrase 7 = Carbonic anhydrase 7 (Homo sapiens, UniProt P43166)
Description: Inhibition of human recombinant CA7

Homo sapiens [1] = species: Homo sapiens; experiment: Selectivity for human CA7 over human CA1
[2] = Selectivity for human CA7 over murine CA13
Homo sapiens [3] = species: Homo sapiens; experiment: Selectivity for human CA7 over human CA2

Carbonic anhydrase 7, sequence (P43166 whole entry): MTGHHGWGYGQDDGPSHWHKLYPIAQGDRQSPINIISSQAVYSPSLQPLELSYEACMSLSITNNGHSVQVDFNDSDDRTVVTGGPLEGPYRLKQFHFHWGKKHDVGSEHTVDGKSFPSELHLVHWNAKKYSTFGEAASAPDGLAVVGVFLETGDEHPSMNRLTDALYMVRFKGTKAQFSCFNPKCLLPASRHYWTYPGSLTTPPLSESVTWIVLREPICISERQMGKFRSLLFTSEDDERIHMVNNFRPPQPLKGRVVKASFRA

O=C(O)O [BICARBONATE]
Ki (Carbonic anhydrase 7): 270 µM and 160 µM

Br [BROMIDE]
Ki (Carbonic anhydrase 7): 1060 µM

N#CO [CYANATE]
Ki (Carbonic anhydrase 7): 15200 µM

F [FLUORIDE ION]
Ki (Carbonic anhydrase 7): 1240 µM

Cl [HYDROCHLORIC ACID]
Ki (Carbonic anhydrase 7): 1840 µM

S [HYDROGEN SULFIDE]
Ki (Carbonic anhydrase 7): 1240 µM

I [IODIDE]
Ki (Carbonic anhydrase 7): 250 µM

O=[N+]([O-])O [NITRIC ACID]
Ki (Carbonic anhydrase 7): 190 µM

O=NO [NITROUS ACID]
Ki (Carbonic anhydrase 7): 1780 µM

OB(O)c1ccccc1 [PHENYLBORONIC ACID]
Selectivity ratio (Homo sapiens [1]): 7060
Ki (Carbonic anhydrase 7): 8.3 µM
Selectivity ratio [2]: 343
Selectivity ratio (Homo sapiens [3]): 2780

NS(=O)(=O)O [SULFAMATE]
Ki (Carbonic anhydrase 7): 9.5 µM

O=S(=O)(O)O [SULFURIC ACID]
Ki (Carbonic anhydrase 7): 1380 µM

O=S(O)O [SULFUROUS ACID]
Ki (Carbonic anhydrase 7): 7300 µM

N#CS [THIOCYANIC ACID]
Ki (Carbonic anhydrase 7): 170 µM
